Laboratory results taken from US12441718B2, “Selective angiotensin II compounds” (VICORE PHARMA AB, priority 2021, dated 2025).
Like-named read-outs stand apart in the source and are kept apart here.

Legend:
CYP2C19 = target: T1, CYP2C19 (Homo sapiens, UniProt P33261); assay: CYP inhibition in human liver microsomes (Eurofins ITEMG232); assay type: in vitro ADME; conditions: human, probe omeprazole, substrate omeprazole, read-out: CYP2C19 Inh %
T1 construct: isoform-specific substrates incubated with human liver microsomes; tissue Eurofins ITEMG232 (protocol number); host or cells: human liver microsomes
T1 sequence (P33261 whole entry, canonical isoform): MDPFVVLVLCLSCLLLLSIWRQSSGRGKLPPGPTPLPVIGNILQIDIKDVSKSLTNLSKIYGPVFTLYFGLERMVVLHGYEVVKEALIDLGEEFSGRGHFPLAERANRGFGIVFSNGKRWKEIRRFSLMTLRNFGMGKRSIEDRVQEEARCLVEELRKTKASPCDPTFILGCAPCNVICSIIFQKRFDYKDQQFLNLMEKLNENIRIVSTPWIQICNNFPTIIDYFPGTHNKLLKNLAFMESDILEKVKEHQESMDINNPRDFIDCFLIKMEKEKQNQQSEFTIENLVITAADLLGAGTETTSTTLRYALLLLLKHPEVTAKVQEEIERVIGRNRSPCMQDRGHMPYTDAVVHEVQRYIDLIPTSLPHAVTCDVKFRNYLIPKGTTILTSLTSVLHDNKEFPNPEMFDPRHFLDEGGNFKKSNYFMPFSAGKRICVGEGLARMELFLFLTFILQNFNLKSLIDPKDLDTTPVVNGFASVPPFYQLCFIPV

CYP3A4 = CYP3A4 (Homo sapiens, UniProt P08684); assay: CYP inhibition in human liver microsomes (Eurofins ITEMG232), midazolam substrate; assay type: in vitro ADME; set-up: isoform-specific substrates incubated with human liver microsomes; tissue Eurofins ITEMG232 (protocol number); host or cells: human liver microsomes; conditions: human, probe midazolam, read-out: CYP3A4 midazolam Inh %
CYP3A4, sequence (P08684 whole entry, canonical isoform): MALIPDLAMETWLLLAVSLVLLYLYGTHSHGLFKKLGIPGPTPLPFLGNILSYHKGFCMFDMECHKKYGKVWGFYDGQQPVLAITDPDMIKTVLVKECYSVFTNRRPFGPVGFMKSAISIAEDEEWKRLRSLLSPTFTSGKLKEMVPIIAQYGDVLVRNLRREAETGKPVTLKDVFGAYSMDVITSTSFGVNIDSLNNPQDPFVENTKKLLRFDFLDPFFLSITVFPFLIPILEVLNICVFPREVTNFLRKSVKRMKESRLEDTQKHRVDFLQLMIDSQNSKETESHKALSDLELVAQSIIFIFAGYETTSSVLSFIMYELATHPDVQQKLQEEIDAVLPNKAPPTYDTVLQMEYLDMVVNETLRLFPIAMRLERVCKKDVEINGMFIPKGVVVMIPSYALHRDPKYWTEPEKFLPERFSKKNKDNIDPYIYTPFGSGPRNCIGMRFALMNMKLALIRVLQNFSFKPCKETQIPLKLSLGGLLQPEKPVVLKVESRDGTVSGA

CYP2C9 = CYP2C9 (Homo sapiens, UniProt P11712); assay: CYP inhibition in human liver microsomes (Eurofins ITEMG232); assay type: in vitro ADME; set-up: isoform-specific substrates incubated with human liver microsomes; tissue Eurofins ITEMG232 (protocol number); host or cells: human liver microsomes; conditions: human, probe diclofenac, substrate diclofenac, read-out: CYP2C9 Inh %
CYP2C9, sequence (P11712 whole entry, canonical isoform): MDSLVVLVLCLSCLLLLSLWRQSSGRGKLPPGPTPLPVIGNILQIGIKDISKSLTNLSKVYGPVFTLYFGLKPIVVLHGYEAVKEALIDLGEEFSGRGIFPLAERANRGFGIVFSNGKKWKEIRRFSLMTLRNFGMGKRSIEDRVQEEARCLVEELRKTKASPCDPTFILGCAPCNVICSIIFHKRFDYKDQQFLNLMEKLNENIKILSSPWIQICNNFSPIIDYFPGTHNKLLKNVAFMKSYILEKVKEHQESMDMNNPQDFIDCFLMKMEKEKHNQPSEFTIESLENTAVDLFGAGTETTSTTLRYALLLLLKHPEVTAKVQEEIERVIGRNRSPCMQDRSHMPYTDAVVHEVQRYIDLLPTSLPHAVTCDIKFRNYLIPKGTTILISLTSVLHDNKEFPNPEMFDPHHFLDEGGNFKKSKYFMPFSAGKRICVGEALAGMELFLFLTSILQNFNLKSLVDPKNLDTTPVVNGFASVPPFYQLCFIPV

CYP2D6 = target: T2, CYP2D6 (Homo sapiens, UniProt P10635); assay: as above; assay type: in vitro ADME; conditions: probe dextromethorphan, substrate dextromethorphan, read-out: CYP2D6 Inh %
T2 construct: isoform-specific substrates incubated with human liver microsomes; tissue Eurofins ITEMG232 (protocol number); host or cells: human liver microsomes
T2 sequence (P10635 whole entry, canonical isoform): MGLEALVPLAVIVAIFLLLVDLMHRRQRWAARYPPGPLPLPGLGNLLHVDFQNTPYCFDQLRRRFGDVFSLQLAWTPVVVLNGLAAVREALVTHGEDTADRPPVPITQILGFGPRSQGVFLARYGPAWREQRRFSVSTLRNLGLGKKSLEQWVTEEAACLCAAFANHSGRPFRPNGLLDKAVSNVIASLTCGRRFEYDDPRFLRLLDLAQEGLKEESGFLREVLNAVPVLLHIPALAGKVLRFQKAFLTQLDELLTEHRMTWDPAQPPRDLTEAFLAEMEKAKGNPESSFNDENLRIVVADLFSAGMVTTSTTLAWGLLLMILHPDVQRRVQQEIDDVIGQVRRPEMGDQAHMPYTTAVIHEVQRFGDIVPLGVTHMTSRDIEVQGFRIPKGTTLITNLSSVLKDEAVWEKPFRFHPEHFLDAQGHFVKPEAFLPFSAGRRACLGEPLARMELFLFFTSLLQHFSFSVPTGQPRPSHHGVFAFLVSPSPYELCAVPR

CYP2B6 = target: T3, CYP2B6 (Homo sapiens, UniProt P20813); assay: as above; assay type: in vitro ADME; conditions: probe bupropion, substrate bupropion, read-out: CYP2B6 Inh %
T3 construct: isoform-specific substrates incubated with human liver microsomes; tissue Eurofins ITEMG232 (protocol number); host or cells: human liver microsomes
T3 sequence (P20813 1-491): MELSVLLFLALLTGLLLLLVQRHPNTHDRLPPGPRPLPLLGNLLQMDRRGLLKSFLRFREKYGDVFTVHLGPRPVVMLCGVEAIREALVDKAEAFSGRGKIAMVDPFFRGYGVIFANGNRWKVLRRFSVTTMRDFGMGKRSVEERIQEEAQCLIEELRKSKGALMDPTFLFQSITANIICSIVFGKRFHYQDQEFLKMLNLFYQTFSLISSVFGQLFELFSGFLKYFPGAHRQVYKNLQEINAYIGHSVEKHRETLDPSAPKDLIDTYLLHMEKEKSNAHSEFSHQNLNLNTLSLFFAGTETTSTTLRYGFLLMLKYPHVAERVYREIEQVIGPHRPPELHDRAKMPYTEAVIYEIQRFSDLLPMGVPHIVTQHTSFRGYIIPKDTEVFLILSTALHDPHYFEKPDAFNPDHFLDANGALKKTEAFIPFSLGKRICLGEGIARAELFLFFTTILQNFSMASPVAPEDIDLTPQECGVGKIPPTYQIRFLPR

CYP2C8 = target: T4, CYP2C8 (Homo sapiens, UniProt P10632); assay: as above; assay type: in vitro ADME; conditions: human, probe paclitaxel and amodiaquine, substrate paclitaxel and amodiaquine, read-out: CYP2C8 Inh %
T4 construct: isoform-specific substrates incubated with human liver microsomes; tissue Eurofins ITEMG232 (protocol number); host or cells: human liver microsomes
T4 sequence (P10632 1-490): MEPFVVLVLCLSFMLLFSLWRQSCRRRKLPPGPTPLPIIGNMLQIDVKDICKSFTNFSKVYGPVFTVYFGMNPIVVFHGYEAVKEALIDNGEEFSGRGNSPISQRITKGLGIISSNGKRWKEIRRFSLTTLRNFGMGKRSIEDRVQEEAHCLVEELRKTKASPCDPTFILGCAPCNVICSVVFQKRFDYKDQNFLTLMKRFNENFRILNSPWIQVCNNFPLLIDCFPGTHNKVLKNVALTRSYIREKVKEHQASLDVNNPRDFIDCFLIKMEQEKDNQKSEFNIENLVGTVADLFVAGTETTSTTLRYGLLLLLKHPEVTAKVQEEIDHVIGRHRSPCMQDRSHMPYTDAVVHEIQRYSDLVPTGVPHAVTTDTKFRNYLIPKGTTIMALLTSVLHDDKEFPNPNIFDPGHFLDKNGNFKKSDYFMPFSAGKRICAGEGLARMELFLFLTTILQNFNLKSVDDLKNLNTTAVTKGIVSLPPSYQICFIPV

CYP1A2 = target: T5, CYP1A2 (Homo sapiens, UniProt P05177); assay: in vitro; assay type: in vitro ADME; conditions: human, microsomes, human liver microsomes, substrate phenacetin, read-out: CYP1A2 Inh %
T5 construct: isoform-specific substrates incubated with human liver microsomes; tissue Eurofins ITEMG232 (protocol number); host or cells: human liver microsomes
T5 sequence (P05177 whole entry, canonical isoform): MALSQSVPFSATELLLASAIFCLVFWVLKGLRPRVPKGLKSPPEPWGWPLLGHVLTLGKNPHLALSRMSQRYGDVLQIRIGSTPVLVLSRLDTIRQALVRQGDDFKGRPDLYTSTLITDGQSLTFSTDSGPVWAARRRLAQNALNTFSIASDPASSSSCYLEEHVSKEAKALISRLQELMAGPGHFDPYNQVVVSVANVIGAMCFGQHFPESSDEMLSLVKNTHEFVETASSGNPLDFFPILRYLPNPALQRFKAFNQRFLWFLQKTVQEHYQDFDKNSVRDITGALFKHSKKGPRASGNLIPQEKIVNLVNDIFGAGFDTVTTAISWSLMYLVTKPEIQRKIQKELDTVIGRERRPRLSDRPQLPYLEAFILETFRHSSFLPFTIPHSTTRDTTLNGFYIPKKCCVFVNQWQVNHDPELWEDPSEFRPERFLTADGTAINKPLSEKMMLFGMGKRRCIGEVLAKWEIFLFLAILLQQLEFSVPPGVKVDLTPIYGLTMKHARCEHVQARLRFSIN
Description: The following substrates were used; CYP1A phenacetin, CYP2B36 bupropion, CYP2C8 paclitaxel and amodiaquine, CYP2C9 diclofenac, CYP2C19 omeprazole, CYP2D6 dextromethorphan, CYP3A midazolam and testosterone.
At the end of the incubation, the formation of metabolite was monitored by HPLC-MS/MS as the peak area response.

[1] = Metabolic stability in pooled human liver microsomes; assay type: in vitro ADME; conditions: human, pooled human liver microsomes, pooled human liver microsomes 0.5 mg/mL, 1 μM test compound, 37° C., * rows = mean of two runs
Description: Pooled human liver microsomes in PBS at a concentration of 0.5 mg/mL was incubated with or without 1 mM NADPH for 70 min at 37° C. Test compound was added after 10 minutes to a final concentration of 1 μM. Samples were withdrawn at 0, 5, 15 and 60 minutes and added to test tubes containing acetonitrile, to stop the reaction, and with terfenadine, used as internal standard. After centrifugation at 10 000×g for 5 minutes the supernatant was diluted 1:1 with 1% formic acid. Samples were separated on a reverse phase column and detected by triple quadrupole MSMS (Agilant model 6540). The concentration of the parent compound at the different time points was measured with an external standard curve using terfenadine as internal standard and the initial metabolic rate in the presence or absence of NADPH calculated.

[2] = target: T6, human recombinant AT2 receptor (Homo sapiens, UniProt P50052); assay: Binding to AT2 receptor, radiometric scintillation assay (Eurofins ITEM26); conditions: ligand 125I CGP 42112A, * rows = mean of runs; for Ki: seven-point dose-response curve; for IC50: test compounds at 1, 10, 100 and 1000 nM, read-out: AT2 GraFit IC50
T6 construct: purchased Eurofins ITEM26 (protocol number)
T6 sequence (P50052 1-363): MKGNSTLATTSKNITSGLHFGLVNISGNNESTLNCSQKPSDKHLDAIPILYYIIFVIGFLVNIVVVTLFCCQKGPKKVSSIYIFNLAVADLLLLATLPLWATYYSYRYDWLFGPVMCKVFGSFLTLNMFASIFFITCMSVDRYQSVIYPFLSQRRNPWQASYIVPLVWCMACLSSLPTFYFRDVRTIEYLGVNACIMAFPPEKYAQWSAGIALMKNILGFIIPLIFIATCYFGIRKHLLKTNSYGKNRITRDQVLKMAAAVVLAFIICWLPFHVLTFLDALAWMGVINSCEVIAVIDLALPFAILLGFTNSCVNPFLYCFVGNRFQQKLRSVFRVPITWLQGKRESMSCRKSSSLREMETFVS

CYP3A4&5 = assay: in vitro; conditions: human, human liver microsomes, probe testosterone;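 note: Read-out is the metabolite generated from the probe substrate, quantified as HPLC-MS/MS peak area once incubation ends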
[3] = with 1 mM NADPH, read-out: T1/2, + NaDPH
[4] = without NADPH, read-out: T1/2, no NaDPH

Row | SMILES | inhibition at 10 µM (CYP2C19) | inhibition at 10 µM (CYP3A4) | inhibition at 10 µM (CYP2C9) | inhibition at 10 µM (CYP2D6) | inhibition at 10 µM (CYP2B6) | inhibition at 10 µM (CYP2C8) | inhibition at 10 µM (CYP1A2) | half-life at 1 μM [1, 3] | half-life at 1 μM [1, 4] | Ki [2] | IC50 [2] | inhibition at 10 µM (CYP3A4&5)
1 | CC(C)Cc1ccc(S(=O)(=O)Nc2ncc(Cl)cn2)c(-c2ccc(Cn3ccnc3C(C)(C)C)c(F)c2)c1 [Example 10, 4′-((2-(tert-Butyl)-1H-imidazol-1-yl)methyl)-N-(5-chloropyrimidin-2-yl)-3′-fluoro-5-isobutyl-[1,1′-biphenyl]-2-sulfonamide] | 55.3% | 32.1% | 87% | 31.9% | 58.3% | 93.2% | 37.7% | > 1 h | > 1 h | 1.5 nM | 3 nM | -17.5%
2 | CC(C)Cc1ccc(S(=O)(=O)Nc2ncc(Br)cn2)c(-c2ccc(Cn3ccnc3C(C)(C)C)c(F)c2)c1 [Example 11, N-(5-Bromopyrimidin-2-yl)-4′-((2-(tert-butyl)-1H-imidazol-1-yl)methyl)-3′-fluoro-5-isobutyl-[1,1′-biphenyl]-2-sulfonamide] | 47.5% | 16.1% | 82% | 20% | 48% | 89.6% | 14.3% | > 1 h | > 1 h | 1.54 nM | 3.07 nM | -19.3%
3 | Cc1nc(NS(=O)(=O)c2ccc(CC(C)C)cc2-c2ccc(Cn3ccnc3C(C)(C)C)cc2)oc1C [Example 13, 4′-((2-(tert-Butyl)-1H-imidazol-1-yl)methyl)-N-(4,5-dimethyloxazol-2-yl)-5-isobutyl-[1,1′-biphenyl]-2-sulfonamide] | 52.1% | -48.7% | 50.9% | 17.6% | 30.4% | 71.3% | 19.8% | 0.567 h | > 1 h | 22.9 nM | 45.8 nM | -2.8%
4 | COc1ccc(NS(=O)(=O)c2ccc(CC(C)C)cc2-c2ccc(Cn3ccnc3C(C)(C)C)cc2)nn1 [Example 14, 4′-((2-(tert-Butyl)-1H-imidazol-1-yl)methyl)-5-isobutyl-N-(6-methoxypyridazin-3-yl)-[1,1′-biphenyl]-2-sulfonamide] | 58.4% | 10.3% | 55.5% | 24.6% | 25.9% | 74.3% | 30% | 0.333 h | > 1 h | 2.6 nM | 5.2 nM | 24.8%
5 | CC(C)Cc1ccc(S(=O)(=O)Nc2ncc(C(F)(F)F)cn2)c(-c2ccc(Cn3ccnc3C(C)(C)C)c(F)c2)c1 [Example 21, 4′-((2-(tert-Butyl)-1H-imidazol-1-yl)methyl)-3′-fluoro-5-isobutyl-N-(5-(trifluoromethyl)pyrimidin-2-yl)-[1,1′-biphenyl]-2-sulfonamide] | 60.2% | 45.8% | 76.8% | 6.8% | 37.9% | 59.1% | -6.4% | > 1 h | > 1 h | 1.35 nM | 2.7 nM | 26.4%
6 | COc1ccc(NS(=O)(=O)c2ccc(CC(C)C)cc2-c2ccc(Cn3ccnc3C(C)(C)C)c(F)c2)nn1 [Example 23, 4′-((2-(tert-Butyl)-1H-imidazol-1-yl)methyl)-3′-fluoro-5-isobutyl-N-(6-methoxypyridazin-3-yl)-[1,1′-biphenyl]-2-sulfonamide] | 63.5% | 55.8% | 42.9% | 4.5% | 5.7% | 24.6% | 6.6% | 0.233 h | > 1 h | 0.32 nM | 0.64 nM | 39.7%
7 | COc1ncnc(OC)c1NS(=O)(=O)c1ccc(CC(C)C)cc1-c1ccc(Cn2ccnc2C(C)(C)C)c(F)c1 [Example 25, 4′-((2-(tert-Butyl)-1H-imidazol-1-yl)methyl)-N-(4,6-dimethoxypyrimidin-5-yl)-3′-fluoro-5-isobutyl-[1,1′-biphenyl]-2-sulfonamide] | 65.8% | 65.1% | 80.7% | 11.9% | 19.4% | 40% | -5.4% | 0.1 h | > 1 h | 75 nM | 150 nM | 57.3%
8 | Cc1cnc(NS(=O)(=O)c2ccc(CC(C)C)cc2-c2ccc(Cn3ccnc3C(C)(C)C)c(F)c2)nc1 [Example 26, 4′-((2-(tert-Butyl)-1H-imidazol-1-yl)methyl)-3′-fluoro-5-isobutyl-N-(5-methylpyrimidin-2-yl)-[1,1′-biphenyl]-2-sulfonamide] | 46.5% | 48.7% | 66.4% | 44.1% | 16.9% | 9.9% | 10.3% | 0.733 h | > 1 h | 1.68 nM | 0.84 nM | 34.9%
